IC50 and Ki data for 19 compounds are collected here from patent US9725442B2, “Heterocyclic derivative having PGD2 receptor antagonist activity” (Shionogi & Co., Ltd., priority 2011, dated 2017).

In one test the target is Human DP1 receptor (Homo sapiens (Human), UniProt Q13258). The experiment in a line: Human DP1 inhibitory activity in DP1-expressing cell (PGD2-induced cAMP). It counts as cell-based. The following applies: category of cAMP IC50, human DP1 receptor expressing Jurkut cell. As for the experimental part: Compounds were categorized as AA (cAMP is less than 100 nM) and A (cAMP is more than 100 nM and less than 5000 nM) as shown in Table 99 and 100.
Human DP1 receptor, sequence (Q13258 whole entry): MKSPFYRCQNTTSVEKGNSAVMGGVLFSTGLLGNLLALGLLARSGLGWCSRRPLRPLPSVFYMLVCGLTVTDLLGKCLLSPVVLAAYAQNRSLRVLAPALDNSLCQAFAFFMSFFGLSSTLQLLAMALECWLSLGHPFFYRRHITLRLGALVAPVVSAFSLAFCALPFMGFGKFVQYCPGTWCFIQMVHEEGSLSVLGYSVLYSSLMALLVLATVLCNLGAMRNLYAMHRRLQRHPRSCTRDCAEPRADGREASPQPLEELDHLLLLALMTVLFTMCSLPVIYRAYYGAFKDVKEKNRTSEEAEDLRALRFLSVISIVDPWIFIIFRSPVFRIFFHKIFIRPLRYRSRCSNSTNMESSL

The target in the next test is CRTH2 (Homo sapiens (Human), UniProt Q9Y5Y4). Nature of the test: CRTH2 receptor binding inhibitory activity ([3H]-PGD2 displacement, membranes of CRTH2-expressing K562 cell). The conditions noted are these: CRTH2 receptor binding, [3H]-PGD2 displacement, membrane of CRTH2-expressing K562 cell; categorized AAAA/AAA; read-out: Ki. The gist of the method:
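CRTH2-expressing K562 membranes (20 μg/well) in 50 mM Tris/HCl pH 7.4 with 10 mM MgCl2 were incubated with [3H]-PGD2 for 60 min at room temperature, then filtered.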

Usually IC50 stands for the concentration that inhibits the measured activity by half. One may read the Ki as a dissociation constant, usually derived from enzyme kinetics or from competition with a known ligand.

A value given as a limit tells only on which side of the number the result lay.

CRTH2, sequence (Q9Y5Y4 whole entry): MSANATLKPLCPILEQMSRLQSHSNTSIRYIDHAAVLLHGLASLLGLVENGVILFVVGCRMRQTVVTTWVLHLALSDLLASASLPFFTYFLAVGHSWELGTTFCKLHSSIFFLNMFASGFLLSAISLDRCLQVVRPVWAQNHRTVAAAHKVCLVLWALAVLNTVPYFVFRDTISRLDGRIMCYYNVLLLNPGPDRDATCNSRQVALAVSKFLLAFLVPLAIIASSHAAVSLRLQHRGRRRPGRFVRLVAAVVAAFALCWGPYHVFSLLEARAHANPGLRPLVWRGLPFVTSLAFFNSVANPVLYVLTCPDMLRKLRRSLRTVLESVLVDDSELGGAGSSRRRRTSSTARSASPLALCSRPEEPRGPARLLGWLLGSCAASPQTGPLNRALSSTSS

`CCOc1ccc(S(=O)(=O)N2C[C@@H](C)[C@@H](n3nc(CC(=O)O)c4ccccc43)C2)c([N+](=O)[O-])c1` [Compound I-324] displayed an IC50 against Human DP1 receptor of less than 100 nM. Further, the Ki at CRTH2 was less than 100 nM.

`CC#CCOC[C@H]1C[C@@H](n2nc(CC(=O)O)c3ccc(F)cc32)CN1S(=O)(=O)c1ccc(OC(C)C)cc1` [Compound I-326] had an IC50 against Human DP1 receptor of 100 to 5000 nM. Further, the Ki at CRTH2 was 100 to 5000 nM.

Turning to `CCCOC[C@H]1C[C@@H](n2nc(CC(=O)O)c3ccc(F)cc32)CN1S(=O)(=O)c1ccc(OC(C)C)cc1` [Compound I-327], the half-inhibitory concentration (IC50) against Human DP1 receptor is 100 to 5000 nM. For the same compound, on CRTH2, the Ki is 100 to 5000 nM.

With `CCOc1ccc(S(=O)(=O)N2C[C@@H](C)[C@@H](n3cc(CC(=O)O)c4ccc(-c5cnn(C)c5)cc43)C2)cc1` [Compound I-328], the IC50 on Human DP1 receptor lay in the range of 100 to 5000 nM. Moreover, at CRTH2, the Ki was 100 to 5000 nM.

`CCOc1ccc(S(=O)(=O)N2C[C@@H](C)[C@@H](n3c(C)c(CC(=O)O)c4ccccc43)C2)cn1` [Compound I-330] came in with an IC50 against Human DP1 receptor of less than 100 nM. Further, on CRTH2, the Ki is less than 100 nM.

With `CCOc1ccc(S(=O)(=O)N2C[C@H](n3nc(CC(=O)O)c4ccc(F)cc43)C(C)(C)C2)cc1` [Compound I-331], the IC50 at Human DP1 receptor is less than 100 nM. The Ki on CRTH2 was less than 100 nM.

In turn, `CCOc1ccc(S(=O)(=O)N2C[C@H](n3nc(CC(=O)O)c4ccccc43)[C@H](C)[C@H]2C#N)cc1` [Compound I-332] yielded an IC50 at Human DP1 receptor of 100 to 5000 nM. Moreover, the Ki on CRTH2 is less than 100 nM.

In the case of `CCOc1ccc(S(=O)(=O)N2C[C@H](n3nc(CC(=O)O)c4ccccc43)[C@H](C)[C@@H]2C#N)cc1` [Compound I-333], the IC50 against Human DP1 receptor is less than 100 nM. Further, on CRTH2, the Ki is less than 100 nM.

Compound `CC(C)Oc1ccc(S(=O)(=O)N2C[C@H](n3nc(CC(=O)O)c4ccc(F)cc43)C[C@@H]2COc2nc3ccccc3s2)cc1` [Compound I-334] showed an IC50 at Human DP1 receptor of less than 100 nM. In addition, the Ki on CRTH2 was 100 to 5000 nM.

On Human DP1 receptor, `CCOc1ccc(S(=O)(=O)N2C[C@@H](C)[C@@H](n3nc(C(F)C(=O)O)c4ccccc43)C2)cc1` (some centres unmarked) [Compound I-338] showed an IC50 of less than 100 nM. The Ki on CRTH2 lay within 100 to 5000 nM.

Take `CCOc1ccc(S(=O)(=O)N2C[C@@H](C)[C@@H](n3nc(Cc4cc(O)no4)c4ccccc43)C2)cc1` [Compound I-341]: the IC50 on Human DP1 receptor fell in the range of 100 to 5000 nM. Besides, the Ki at CRTH2 lay in the range of 100 to 5000 nM.

Compound `CC(C)Oc1ccc(S(=O)(=O)N2C[C@H](n3nc(CC(=O)O)c4ccc(F)cc43)C[C@@H]2COCCCO)cc1` [Compound I-342] came in with an IC50 at Human DP1 receptor of 100 to 5000 nM. The Ki at CRTH2 is 100 to 5000 nM.

Compound `CC(C)Oc1ccc(S(=O)(=O)N2C[C@H](n3nc(CC(=O)O)c4ccc(F)cc43)C[C@@H]2CCc2ccccc2)cc1` [Compound I-343] returned an IC50 against Human DP1 receptor of less than 100 nM. At CRTH2, the Ki is less than 100 nM.

The compound `COc1ccccc1OC[C@H]1C[C@@H](n2nc(CC(=O)O)c3ccc(F)cc32)CN1S(=O)(=O)c1ccc(OC(C)C)cc1` [Compound I-344] registered an IC50 against Human DP1 receptor of less than 100 nM. Further, the Ki at CRTH2 was 100 to 5000 nM.

For `CC(C)Oc1ccc(S(=O)(=O)N2C[C@H](n3nc(CC(=O)O)c4ccc(F)cc43)CC2c2cccnc2)cc1` (some centres unmarked) [Compound I-345], the IC50 on Human DP1 receptor was in the range of 100 to 5000 nM. The Ki at CRTH2 is 100 to 5000 nM.

On Human DP1 receptor, `CC(C)Oc1ccc(S(=O)(=O)N2C[C@H](n3nc(CC(=O)O)c4ccc(F)cc43)C[C@@H]2COc2cccc(O)c2)cc1` [Compound I-346] registered an IC50 of less than 100 nM. The Ki on CRTH2 was less than 100 nM.

Compound `CC(C)Oc1ccc(S(=O)(=O)N2C[C@H](n3nc(CC(=O)O)c4ccc(F)cc43)C[C@@H]2COc2ccc(O)cc2)cc1` [Compound I-347] gave a 50% inhibitory concentration (IC50) at Human DP1 receptor of less than 100 nM. The Ki at CRTH2 was in the range of 100 to 5000 nM.

Regarding `CC(C)Oc1ccc(S(=O)(=O)N2C[C@H](n3nc(CC(=O)O)c4ccc(F)cc43)C[C@@H]2Cc2ccccc2)cc1` [Compound I-348], the IC50 on Human DP1 receptor was less than 100 nM. For the same compound, the Ki on CRTH2 is less than 100 nM.

On Human DP1 receptor, `CC(C)Oc1ccc(S(=O)(=O)N2C[C@H](n3nc(CC(=O)O)c4ccccc43)C[C@@H]2Cc2ccccc2)cc1` [Compound I-349] had an IC50 of less than 100 nM. The Ki on CRTH2 lay within 100 to 5000 nM.
